Test results taken from patent publication US9399646B2 (Genentech, Inc., priority 2010, dated 2016).

Tests used:
MCF-7 cells = test: Breast cancer cell viability assay (CellTiter-Glo, 5 days); assay type: cell-based; conditions: 5 days' compound exposure; for IC50: Homo sapiens, MCF7, 120 h
Procedure, shortened: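 Eleven-point semilog compound series, final 0.3-0.000003 μM, added to overnight-adhered MCF-7 cells (320/well; RPMI, 10% FBS, 20 mM HEPES) for 5 days. Viability read by CellTiter-Glo luminescence, background from medium without cells subtracted, expressed relative to untreated cells.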

ER-α in MCF-7 cells = molecular target: T1, ER-α in MCF-7 cells (Homo sapiens, UniProt P03372); test: Breast cancer cell ER-α in cell western assay (SP1); assay type: cell-based; design: endogenous in cells; host or cells: MCF-7; conditions: 4 or 24 hr post compound addition; for Emax: MCF7, SP1 antibody, read-out: ER-α In Cell Western Assay (SP1) Max Response; for DC50: SP1 antibody, read-out: ER-α In Cell Western Assay (SP1) IC50
T1 sequence (P03372 1-595): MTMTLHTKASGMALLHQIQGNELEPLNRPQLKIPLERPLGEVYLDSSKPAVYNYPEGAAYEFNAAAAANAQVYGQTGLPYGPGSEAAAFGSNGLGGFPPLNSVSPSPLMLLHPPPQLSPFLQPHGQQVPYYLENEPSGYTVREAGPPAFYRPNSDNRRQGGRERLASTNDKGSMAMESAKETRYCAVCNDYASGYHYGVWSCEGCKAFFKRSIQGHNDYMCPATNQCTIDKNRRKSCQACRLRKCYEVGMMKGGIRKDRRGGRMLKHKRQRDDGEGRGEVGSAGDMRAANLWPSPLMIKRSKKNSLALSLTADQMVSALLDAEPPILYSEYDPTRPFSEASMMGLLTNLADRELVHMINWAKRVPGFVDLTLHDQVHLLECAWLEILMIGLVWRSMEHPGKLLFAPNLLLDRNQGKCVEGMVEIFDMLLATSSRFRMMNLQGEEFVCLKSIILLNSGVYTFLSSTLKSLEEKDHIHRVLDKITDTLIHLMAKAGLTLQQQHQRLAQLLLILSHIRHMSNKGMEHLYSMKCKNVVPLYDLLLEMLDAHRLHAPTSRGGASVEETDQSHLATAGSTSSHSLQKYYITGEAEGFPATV
Procedure, shortened: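 Percent remaining ER: SP1 immunofluorescence normalized to DRAQ5 nuclear stain, compared with untreated controls. Treatment lasted 4 or 24 hr across 0.3–0.000003 μM final in MCF-7.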

IC50 (MCF-7 cells) [nM] | Emax (ER-α in MCF-7 cells) [%] | DC50 (ER-α in MCF-7 cells) [nM] | SMILES | MCF7 Viability Assay Max Response (MCF-7 cells)
> 100 | ≥ 40 | > 100 | CC/C(=C(/c1ccc(/C=C/C(=O)O)cc1)c1ccc2[nH]ncc2c1)c1ccnn1C [Compound 208, (E)-3-(4-((E)-1-(1H-Indazol-5-yl)-2-(1-methyl-1H-pyrazol-5-yl)but-1-en-1-yl)phenyl)acrylic acid] | + (+ = a single % value < 40%)
≤ 100 | ≥ 40 | ≤ 100 | CC/C(=C(/c1ccc(/C=C/C(=O)O)cc1)c1ccc2[nH]ncc2c1)c1ccc(Oc2ccccc2)c(F)c1 [Compound 295, (E)-3-(4-((E)-2-(3-Fluoro-4-phenoxyphenyl)-1-(1H-indazol-5-yl)but-1-en-1-yl)phenyl)acrylic acid] | ++ (++ = a single % value ≧ 40%)
> 100 | ≥ 40 | ≤ 100 | CC/C(=C(/c1ccc(/C=C/C(=O)O)cc1)c1ccc2[nH]ncc2c1)c1ccc(-c2nccs2)cc1 [Compound 387, (E)-3-(4-((E)-1-(1H-Indazol-5-yl)-2-(4-(thiazol-2-yl)phenyl)but-1-en-1-yl)phenyl)acrylic acid] | ++ (++ = a single % value ≧ 40%)
≤ 100 | ≥ 40 | ≤ 100 | CC/C(=C(/c1ccc(/C=C/C(=O)O)cc1)c1ccc2[nH]ncc2c1)c1ccc([S+]([O-])C(F)(F)F)cc1 (stereo not shown) [Compound 302, (E)-3-(4-((E)-1-(1H-Indazol-5-yl)-2-(4-((trifluoromethyl)sulfinyl)phenyl)but-1-en-1-yl)phenyl)acrylic acid] | ++ (++ = a single % value ≧ 40%)
> 100 | < 40 | > 100 | CC/C(=C(/c1ccc(/C=C/C(=O)O)cc1)c1ccc2[nH]ncc2c1)c1cccc(CC(=O)O)c1 [Compound 327, (E)-3-(4-((E)-2-(3-(Carboxymethyl)phenyl)-1-(1H-indazol-5-yl)but-1-en-1-yl)phenyl)acrylic acid] | + (+ = a single % value < 40%)
> 100 | ≥ 40 | ≤ 100 | CC/C(=C(/c1ccc(/C=C/C(=O)O)cc1)c1ccc2[nH]ncc2c1)c1cccc(N2CCCC2)c1 [Compound 249] | ++ (++ = a single % value ≧ 40%)
> 100 | ≥ 40 | ≤ 100 | CC/C(=C(/c1ccc(/C=C/C(=O)O)cc1)c1ccc2[nH]ncc2c1)c1ccc(-c2ccsc2)cc1 [Compound 386, (E)-3-(4-((E)-1-(1H-Indazol-5-yl)-2-(4-(thiophen-3-yl)phenyl)but-1-en-1-yl)phenyl)acrylic acid] | ++ (++ = a single % value ≧ 40%)
> 100 | ≥ 40 | > 100 | CC/C(=C(/c1ccc(/C=C/C(=O)O)cc1)c1ccc2[nH]ncc2c1)c1cccc(N2CCOCC2)c1 [Compound 265, (E)-3-(4-((E)-1-(1H-Indazol-5-yl)-2-(3-morpholinophenyl)but-1-en-1-yl)phenyl)acrylic acid] | ++ (++ = a single % value ≧ 40%)

The next lines start with the compound.

SMILES | IC50 (MCF-7 cells) [nM] | Emax (ER-α in MCF-7 cells) [%] | DC50 (ER-α in MCF-7 cells) [nM] | MCF7 Viability Assay Max Response (MCF-7 cells)
CC/C(=C(/c1ccc(/C=C/C(=O)O)cc1)c1ccc2scnc2c1)c1cccc(Oc2cnccn2)c1 [Compound 301, (E)-3-(4-((E)-1-(Benzo[d]thiazol-5-yl)-2-(3-(pyrazin-2-yloxy)phenyl)but-1-en-1-yl)phenyl)acrylic acid] | > 100 | ≥ 40 | ≤ 100 | ++ (++ = a single % value ≧ 40%)
CC/C(=C(/c1ccc2c(c1)CC(C(=O)O)C2)c1ccc2[nH]ncc2c1)c1ccccc1 (stereo not shown) [Compound 192, (E)-5-(1-(1H-Indazol-5-yl)-2-phenylbut-1-en-1-yl)-2,3-dihydro-1H-indene-2-carboxylic acid] | > 100 | ≥ 40 | > 100 | ++ (++ = a single % value ≧ 40%)
CC/C(=C(/c1ccc(/C=C/c2nn[nH]n2)cc1)c1ccc2scnc2c1)c1cscc1C [Compound 447, 5-((E)-1-(4-((E)-2-(2H-Tetrazol-5-yl)vinyl)phenyl)-2-(4-methylthiophen-3-yl)but-1-en-1-yl)benzo[d]thiazole] | ≤ 100 | ≥ 40 | ≤ 100 | ++ (++ = a single % value ≧ 40%)
CC/C(=C(/c1ccc(/C=C/C(=O)O)cc1)c1ccc2[nH]c(=O)[nH]c2c1)c1ccccc1 [Compound 122, (E)-3-(4-((E)-1-(2-Oxo-2,3-dihydro-1H-benzo[d]imidazol-5-yl)-2-phenylbut-1-en-1-yl)phenyl)acrylic acid] | > 100 | ≥ 40 | > 100 | ++ (++ = a single % value ≧ 40%)
CC/C(=C(/c1ccc(/C=C/C(=O)O)cc1)c1ccc2[nH]ncc2c1)c1cccc(Oc2ccc(S(C)(=O)=O)nc2)c1 [Compound 380, (E)-3-(4-((E)-1-(1H-Indazol-5-yl)-2-(3-((6-(methylsulfonyl)pyridin-3-yl)oxy)phenyl)but-1-en-1-yl)phenyl)acrylic acid] | > 100 | ≥ 40 | ≤ 100 | ++ (++ = a single % value ≧ 40%)
CC/C(=C(/c1ccc(OCCN2CCCC2)cc1)c1ccc2[nH]ncc2c1)c1ccccc1 [Compound 191, (E)-5-(2-Phenyl-1-(4-(2-(pyrrolidin-1-yl)ethoxy)phenyl)but-1-en-1-yl)-1H-indazole] | ≤ 100 | ≥ 40 | ≤ 100 | ++ (++ = a single % value ≧ 40%)
CC/C(=C(/c1ccc(/C=C/C(=O)NS(C)(=O)=O)cc1)c1ccc2[nH]ncc2c1)c1ccc(F)cc1Cl [Compound 408, (E)-3-(4-((E)-2-(2-Chloro-4-fluorophenyl)-1-(1H-indazol-5-yl)but-1-en-1-yl)phenyl)-N-(methylsulfonyl)acrylamide] | ≤ 100 | ≥ 40 | ≤ 100 | ++ (++ = a single % value ≧ 40%)
CC/C(=C(/c1ccc(/C=C/c2nn[nH]n2)cc1)c1ccc2scnc2c1)c1ccc(F)cc1Cl [Compound 445, 5-((E)-1-(4-((E)-2-(2H-Tetrazol-5-yl)vinyl)phenyl)-2-(2-chloro-4-fluorophenyl)but-1-en-1-yl)benzo[d]thiazole] | ≤ 100 | ≥ 40 | ≤ 100 | ++ (++ = a single % value ≧ 40%)
CC/C(=C(/c1ccc(/C=C/c2nn[nH]n2)cc1)c1ccc2scnc2c1)c1ccncc1Cl [Compound 446, 5-((E)-1-(4-((E)-2-(2H-Tetrazol-5-yl)vinyl)phenyl)-2-(3-chloropyridin-4-yl)but-1-en-1-yl)benzo[d]thiazole] | ≤ 100 | ≥ 40 | ≤ 100 | ++ (++ = a single % value ≧ 40%)
CC/C(=C(/c1ccc(/C=C/C(=O)O)cc1)c1ccc2[nH]ncc2c1)c1ccc(-c2cncnc2)cc1 [Compound 383, (E)-3-(4-((E)-1-(1H-Indazol-5-yl)-2-(4-(pyrimidin-5-yl)phenyl)but-1-en-1-yl)phenyl)acrylic acid] | > 100 | ≥ 40 | > 100 | ++ (++ = a single % value ≧ 40%)
CCOC(=O)/C=C/c1ccc(/C(=C(/CC)c2ccccc2)c2cccc3[nH]ncc23)cc1 [Compound 175, (E)-Ethyl 3-(4-((E)-1-(1H-Indazol-4-yl)-2-phenylbut-1-en-1-yl)phenyl)acrylate] | ≤ 100 | ≥ 40 | ≤ 100 | + (+ = a single % value < 40%)
CC/C(=C(/c1ccc(/C=C/C(=O)O)cc1)c1cc2ccccc2s1)c1ccccc1 [Compound 142, (E)-3-(4-((E)-1-(Benzo[b]thiophen-2-yl)-2-phenylbut-1-en-1-yl)phenyl)acrylic acid] | ≤ 100 | ≥ 40 | ≤ 100 | ++ (++ = a single % value ≧ 40%)
CC/C(=C(/c1ccc(/C=C/C(=O)O)cc1)c1ccc2sncc2c1)c1ccccc1 [Compound 156, (E)-3-(4-((E)-1-(Benzo[d]isothiazol-5-yl)-2-phenylbut-1-en-1-yl)phenyl)acrylic acid] | > 100 | ≥ 40 | > 100 | ++ (++ = a single % value ≧ 40%)
CC/C(=C(/c1ccc(/C=C/C(=O)O)cc1)c1ccc2scnc2c1)c1ccccc1 [Compound 141, (E)-3-(4-((E)-1-(Benzo[d]thiazol-5-yl)-2-phenylbut-1-en-1-yl)phenyl)acrylic acid] | ≤ 100 | ≥ 40 | ≤ 100 | ++ (++ = a single % value ≧ 40%)
